Results on 24 molecules are retold here after US11319299B2, “Substituted carboxamides as inhibitors of WDR5 protein-protein binding” (PROPELLON THERAPEUTICS INC., priority 2016, dated 2022).

The first assay concerns the target WDR5 (Homo sapiens (Human), UniProt P61964). As to the kind of experiment: Surface Plasmon Resonance (SPR) assay, KD and residence time. The class given is binding. The settings on record: surface plasmon resonance (SPR) assay; read-out: WDR5 binding affinity (KD).
In general, Kd refers to the free concentration of one partner at which half of the binding sites on the other are occupied at equilibrium, for simple one-to-one binding. Take `C[C@@H]1CN(c2cc(F)c(-c3ccc(C(F)(F)F)cc3)cc2NC(=O)c2c[nH]c(=O)cc2C(F)(F)F)C[C@H](C)N1C` [Example 144, N-[4-fluoro-2-[(3R,5S)-3,4,5-trimethylpiperazin-1-yl]-5-[4-(trifluoromethyl)phenyl]phenyl]-6-oxo-4-(trifluoromethyl)-1H-pyridine-3-carboxamide]: the Kd came out at 6.06 nM.
Same read-out and setting: the value for `C[C@@H]1CN(c2cc(F)c(-c3ccc(F)nc3)cc2NC(=O)c2c[nH]c(=O)cc2C(F)(F)F)C[C@H](C)N1C` [Example 257, N-[4-fluoro-5-(6-fluoropyridin-3-yl)-2-[(3R,5S)-3,4,5-trimethylpiperazin-1-yl]phenyl]-6-oxo-4-(trifluoromethyl)-1H-pyridine-3-carboxamide] was 1.7 nM; that for `C[C@@H]1CN(c2cc(F)c(-c3ccnc(N4CCOCC4)c3)cc2NC(=O)c2c[nH]c(=O)cc2C(F)(F)F)C[C@H](C)N1C` [Example 83, N-[4-fluoro-5-(2-morpholin-4-ylpyridin-4-yl)-2-[(3R,5S)-3,4,5-trimethylpiperazin-1-yl]phenyl]-6-oxo-4-(trifluoromethyl)-1H-pyridine-3-carboxamide] was 0.391 nM.
Still for that read-out and setting: the value for `C[C@@H]1CN(c2cc(F)c(-c3ccc4c(c3)OCCCO4)cc2NC(=O)c2c[nH]c(=O)cc2C(F)(F)F)C[C@H](C)N1C` [Example 69, N-[5-(3,4-dihydro-2H-1,5-benzodioxepin-7-yl)-4-fluoro-2-[(3R,5S)-3,4,5-trimethylpiperazin-1-yl]phenyl]-6-oxo-4-(trifluoromethyl)-1H-pyridine-3-carboxamide] was 0.225 nM; that for `C[C@@H]1CN(c2cc(F)c(C3=CCN(C)CC3)cc2NC(=O)c2c[nH]c(=O)cc2C(F)(F)F)C[C@H](C)N1C` [Example 267, N-[4-fluoro-5-(1-methyl-3,6-dihydro-2H-pyridin-4-yl)-2-[(3R,5S)-3,4,5-trimethylpiperazin-1-yl]phenyl]-6-oxo-4-(trifluoromethyl)-1H-pyridine-3-carboxamide] was 10.7 nM.
Still for that read-out and setting: in the case of `COc1cc(-c2cc(NC(=O)c3c[nH]c(=O)cc3C(F)(F)F)c(N3C[C@@H](C)N(C)[C@@H](C)C3)cc2F)cnc1OC` [Example 104, N-[5-(5,6-dimethoxypyridin-3-yl)-4-fluoro-2-[(3R,5S)-3,4,5-trimethylpiperazin-1-yl]phenyl]-6-oxo-4-(trifluoromethyl)-1H-pyridine-3-carboxamide] it was 2.41 nM; in that of `C[C@@H]1CN(c2cc(F)c(-c3ccc(OC4CCOCC4)nc3)cc2NC(=O)c2c[nH]c(=O)cc2C(F)(F)F)C[C@H](C)N1C` [Example 101, N-[4-fluoro-5-[6-(oxan-4-yloxy)pyridin-3-yl]-2-[(3R,5S)-3,4,5-trimethylpiperazin-1-yl]phenyl]-6-oxo-4-(trifluoromethyl)-1H-pyridine-3-carboxamide], 0.32 nM; in that of `C[C@@H]1CN(c2cc(F)c(C3=CCN(Cc4ccsc4)CC3)cc2NC(=O)c2c[nH]c(=O)cc2C(F)(F)F)C[C@H](C)N1C` [Example 155, N-[4-fluoro-2-[(3R,5S)-3,4,5-trimethylpiperazin-1-yl]-5-[1-(thiophen-3-ylmethyl)-3,6-dihydro-2H-pyridin-4-yl]phenyl]-6-oxo-4-(trifluoromethyl)-1H-pyridine-3-carboxamide], 4.76 nM.

The same assay, now with this note: surface plasmon resonance (SPR); read-out: WDR5 binding affinity (KD).
As for `C[C@@H]1CN(c2ccc(-c3cc(NC(=O)c4cn(C)c(=O)cc4C(F)F)c(N4CCN(C)[C@H](C)C4)cc3F)cn2)CCO1` (stereo in doubt) [Example 519, 4-(difluoromethyl)-N-[4-fluoro-2-[(3R)-3,4-dimethylpiperazin-1-yl]-5-[6-[(2R)-2-methylmorpholin-4-yl]pyridin-3-yl]phenyl]-1-methyl-6-oxopyridine-3-carboxamide], the Kd worked out at 3.39 nM.
The same measure, in the same setting: the value for `C[C@@H]1CN(c2cc(F)c(-c3cc(F)c(C(N)=O)c(F)c3)cc2NC(=O)c2ccc(F)cc2C(F)(F)F)C[C@H](C)N1C` [Example 656, 2,6-difluoro-4-[2-fluoro-5-[[4-fluoro-2-(trifluoromethyl)benzoyl]amino]-4-[(3R,5S)-3,4,5-trimethylpiperazin-1-yl]phenyl]benzamide] was 5.44 nM; that for `C[C@@H]1CN(c2cc(F)c(-c3ccc(C(=O)NC(C)(C)CC(C)(C)C)c(F)c3F)cc2NC(=O)c2c[nH]c(=O)cc2C(F)(F)F)C[C@H](C)N1C` [Example 669, N-[5-[2,3-difluoro-4-(2,4,4-trimethylpentan-2-ylcarbamoyl)phenyl]-4-fluoro-2-[(3R,5S)-3,4,5-trimethylpiperazin-1-yl]phenyl]-6-oxo-4-(trifluoromethyl)-1H-pyridine-3-carboxamide] was 9.71 nM; that for “N-[5-[1-(2-cyanopyrimidin-4-yl)-3,6-dihydro-2H-pyridin-5-yl]-4-fluoro-2-[(3R)-3,4-dimethylpiperazin-1-yl]phenyl]-4-(difluoromethyl)-6-oxo-1H-pyridine-3-carboxamide [Example 740]” was 4.47 nM.
Still for that read-out and setting: the value for `COc1cc(N2CC=C(c3cc(NC(=O)c4c[nH]c(=O)cc4C(F)(F)F)c(N4C[C@@H](C)N(C)[C@@H](C)C4)cc3F)C2)ncn1` [Example 438, N-[4-fluoro-5-[1-(6-methoxypyrimidin-4-yl)-2,5-dihydropyrrol-3-yl]-2-[(3R,5S)-3,4,5-trimethylpiperazin-1-yl]phenyl]-6-oxo-4-(trifluoromethyl)-1H-pyridine-3-carboxamide] was 1.99 nM; that for `C[C@@H]1CN(c2cc(F)c(-c3cnn(C)c3)cc2NC(=O)c2c[nH]c(=O)cc2C(F)(F)F)C[C@H](C)N1C` [Example 445, N-[4-fluoro-5-(1-methylpyrazol-4-yl)-2-[(3R,5S)-3,4,5-trimethylpiperazin-1-yl]phenyl]-6-oxo-4-(trifluoromethyl)-1H-pyridine-3-carboxamide] was 1.95 nM.
On the same count and under the same terms, the value for `CC1CN(c2cc(F)c(-c3cccc(N4CCOCC4)n3)cc2NC(=O)c2c[nH]c(=O)cc2C(F)(F)F)CCN1C` (stereo in doubt) [Example 719, N-[4-fluoro-5-(6-morpholin-4-ylpyridin-2-yl)-2-[(3R)-3,4-dimethylpiperazin-1-yl]phenyl]-6-oxo-4-(trifluoromethyl)-1H-pyridine-3-carboxamide] was 1.18 nM.
Consider `C[C@@H]1CN(c2cc(F)c(-c3ccc(S(C)(=O)=O)nc3)cc2NC(=O)c2c[nH]c(=O)cc2C(F)(F)F)C[C@H](C)N1C` [Example 581, N-[4-fluoro-5-(6-methylsulfonylpyridin-3-yl)-2-[(3R,5S)-3,4,5-trimethylpiperazin-1-yl]phenyl]-6-oxo-4-(trifluoromethyl)-1H-pyridine-3-carboxamide], for which the Kd turned out to be 0.768 nM.
Regarding `C[C@@H]1CN(c2ncc(-c3cc(NC(=O)c4cn(C)c(=O)cc4C(F)(F)F)c(N4CCN(C)[C@@H](C)C4)cc3F)cn2)CCO1` [Example 544, N-[4-fluoro-2-[(3S)-3,4-dimethylpiperazin-1-yl]-5-[2-[(2R)-2-methylmorpholin-4-yl]pyrimidin-5-yl]phenyl]-1-methyl-6-oxo-4-(trifluoromethyl)pyridine-3-carboxamide], the Kd came out at 1.8 nM.
Still for that read-out and setting: in the case of `C[C@@H]1CN(c2cc(F)c(-c3ccc(C(=O)NCC4CC4)c(F)c3)cc2NC(=O)c2c[nH]c(=O)cc2C(F)(F)F)C[C@H](C)N1C` [Example 735, N-[5-[4-(cyclopropylmethylcarbamoyl)-3-fluorophenyl]-4-fluoro-2-[(3R,5S)-3,4,5-trimethylpiperazin-1-yl]phenyl]-6-oxo-4-(trifluoromethyl)-H-pyridine-3-carboxamide] it was 4.23 nM; in that of `C[C@@H]1CN(c2cc(F)c(C3=CCCN(c4ncc(C#N)s4)C3)cc2NC(=O)c2c[nH]c(=O)cc2C(F)(F)F)C[C@H](C)N1C` [Example 615, N-[5-[1-(5-cyano-1,3-thiazol-2-yl)-3,6-dihydro-2H-pyridin-5-yl]-4-fluoro-2-[(3R,5S)-3,4,5-trimethylpiperazin-1-yl]phenyl]-6-oxo-4-(trifluoromethyl)-1H-pyridine-3-carboxamide], 0.375 nM; in that of `Cc1cnc(N2CC=C(c3cc(NC(=O)c4c[nH]c(=O)cc4C(F)(F)F)c(N4C[C@@H](C)N(C)[C@@H](C)C4)cc3F)C2)nc1` [Example 439, N-[4-fluoro-5-[1-(5-methylpyrimidin-2-yl)-2,5-dihydropyrrol-3-yl]-2-[(3R,5S)-3,4,5-trimethylpiperazin-1-yl]phenyl]-6-oxo-4-(trifluoromethyl)-1H-pyridine-3-carboxamide], 2.45 nM.
Consider `C[C@@H]1CN(c2cc(F)c(-c3ccc(C(N)=O)c(F)c3)cc2NC(=O)c2c[nH]c(=O)cc2C(F)(F)F)C[C@H](C)N1C` [Example 551, N-[5-(4-carbamoyl-3-fluorophenyl)-4-fluoro-2-[(3R,5S)-3,4,5-trimethylpiperazin-1-yl]phenyl]-6-oxo-4-(trifluoromethyl)-1H-pyridine-3-carboxamide], for which the dissociation constant (Kd) amounted to 0.6 nM.
On the same count and under the same terms, in the case of `C[C@@H]1CN(c2cc(F)c(-c3ccnc(S(C)(=O)=O)n3)cc2NC(=O)c2c[nH]c(=O)cc2C(F)(F)F)C[C@H](C)N1C` [Example 399, N-[4-fluoro-5-(2-methylsulfonylpyrimidin-4-yl)-2-[(3R,5S)-3,4,5-trimethylpiperazin-1-yl]phenyl]-6-oxo-4-(trifluoromethyl)-1H-pyridine-3-carboxamide] it was 4.58 nM.
Still for that read-out and setting: in the case of `CC(C)N(C)[C@@H]1CCN(c2cc(F)c(-c3cnc(N4CCOCC4)nc3)cc2NC(=O)c2c[nH]c(=O)cc2C(F)(F)F)C1` [Example 420, N-[4-fluoro-5-(2-morpholin-4-ylpyrimidin-5-yl)-2-[(3R)-3-[methyl(propan-2-yl)amino]pyrrolidin-1-yl]phenyl]-6-oxo-4-(trifluoromethyl)-1H-pyridine-3-carboxamide] it was 172 nM; in that of `CN1CC[C@@H]2CN(c3cc(F)c(-c4cnc(N5CCOCC5)nc4)cc3NC(=O)c3c[nH]c(=O)cc3C(F)(F)F)C[C@@H]21` (stereo in doubt) [Example 477, N-[4-fluoro-5-(2-morpholin-4-ylpyrimidin-5-yl)-2-[(3aR,6aR)-1-methyl-2,3,3a,4,6,6a-hexahydropyrrolo[2,3-c]pyrrol-5-yl]phenyl]-6-oxo-4-(trifluoromethyl)-1H-pyridine-3-carboxamide], 24.2 nM.
